Experimental data from patent US9974787B2, “Modified albumin microbubble” (National Taiwan University of Science and Technology, priority 2016, dated 2018).
“And” between values parts separate entries of the source, which are not always exact repeats. Identical values can stand only once.

Columns and labels:
[1] = Transdermal penetration study of Mx released by Mx-COL-MBs (Franz diffusion cell); format: in vitro ADME, porcine; details: Mx 0.3 mg/ml; for Amount of skin penetration (cumulative Mx penetration amount): 18th hour; for Amount of total penetration: 18 hours; for Amount of skin absorption: after 18 hours
Method: Transdermal Penetration Study of Mx Released by Mx-COL-MBs
The procedures of the study included: interposing a piece of 3 mm-thick porcine ear skin between a donor cell and a receptor cell of the Franz diffusion cell at a temperature of 37±0.5° C. 1 ml of any one of the abovementioned 6 solutions was applied to the donor cell facing the stratum corneum (SC) side, enabling the MB, Mx, or Mx-COL-MB to penetrate the Parafilm on a bottom of the donor cell and reach the skin. Besides, the receptor cell facing the dermis side was filled with 12 ml of PBS at pH 7.4, accompanied with magnetic stirring at the rate of 600 rpm and 0.01% gentamicin to prevent bacterial degradation of the Mx during the penetration process. At the 0.5th hr, a 1-MHz ultrasound sonicator was positioned 3 mm from the top of the skin, and the skin was sonicated at a power density of 3 W/cm^2 for 1 min. At the time intervals of 0.5, 1, 2, 3, 4, 5, 6, 8, 12 and 18 hours, 1 ml of receptor solution sample filtered by 0.2-μm pores was extracted from the receptor cell to measure the Mx content in the receptor solution, with the receptor solution refilled each time with the same volume of PBS. After 18 hours, the porcine skin sample was washed and then homogenized with 1 ml of the receptor solution. The supernatant was centrifuged to acquire further supernatant to measure the absorbed amount of Mx in the porcine ear skin.

[2] = tested on: C57BL/6 mice; test: Study of animal hair growth (skin luminosity of shaved back); format: in vivo; details: for number of mice with significantly lower skin luminosity: day 10, Mx 0.3 mg/ml topical; for hair growth rate: day 16, Mx 0.3 mg/ml
Method: Study of Animal Hair Growth
The study utilized 6-week-old C57BL/6 mice weighing 20-25 g, which were shaved at an area of about 10 cm^2 in the back at 8 weeks old, when all of the hair follicles were synchronized in the telogen phase. […] Among all groups, the US treatment was applied at 3 W/cm^2 for 1 min, and the concentration of Mx was 0.3 mg/ml (i.e. 0.5 ml/cm^2) in all groups. The change in skin luminosity of the shaved area was assessed using the Chroma Meter. The hair growth rate was calculated according to the following equation: Hair growth rate (%)=(L1−Ln)/L1×100%
where L1 is the luminosity index of the shaved area, and Ln is the luminosity index of the area at different time intervals.

[3] = Study of transdermal penetration depth (FITC); details: 0.1 mg FITC, retained 6 hr on porcine ear skin
Method: Study of Transdermal Penetration Depth
Each group contained 0.1 mg FITC (fluorescein isothiocyanate), and was uniformly loaded onto the porcine ear skin with an area of 4.5 cm^2 and a thickness of 3 mm, sonicated by the 1-MHz ultrasound sonicator successively at power density of 3 W/cm^2, with each sonication period of 1 min. After sonication, the FITC (and the MBs) retained on the porcine ear skin for 6 hr, and was then washed away.
FIG. 7A-7C are bright-field images, and FIG. 7D-7F are dark-field fluorescent images.

[4] = with ultrasound treatment 3 W/cm^2, 1 min
[5] = with US treatment 3 W/cm^2, 1 min

## Nc1cc(N2CCCCC2)nc(N)[n+]1[O-] [Comparative example 4, Minoxidil]
[1]; without ultrasound treatment
  Amount of skin penetration (cumulative Mx penetration amount): 103.1 ± 0.5 µg/mL and 103.1 ± 0.51 µg/mL
  Amount of total penetration: 155.54 ± 10.05 µg/mL
  Amount of skin absorption: 52.42 ± 9.55 µg/mL
[2]; without US treatment
  number of mice with significantly lower skin luminosity: 1
  hair growth rate: 45.5%

## Nc1cc(N2CCCCC2)nc(N)[n+]1[O-] [Comparative example 8, Minoxidil]
[1]; [4]
  Amount of skin penetration (cumulative Mx penetration amount): 113.0 ± 6.0 µg/mL and 113.01 ± 5.95 µg/mL
  Amount of total penetration: 126.04 ± 7.52 µg/mL
  Amount of skin absorption: 33.02 ± 1.56 µg/mL
[2]; [5]
  number of mice with significantly lower skin luminosity: 1
  hair growth rate: 64.5%

## fluorescein isothiocyanate [Comparative example 6]
[3]; without US treatment
  penetration depth of FITC: 312±19 μm

## fluorescein isothiocyanate [Comparative example 7]
[3]; with US treatment 1 MHz, 3 W/cm^2, 1 min
  penetration depth of FITC: 405±23 μm
